The source of these data is patent publication US20240350448A1, “DICHLOROACETIC ACID CONJUGATING DIPHENYL ETHANE COMPOUND, AND PREPARATION METHOD AND APPLICATION THEREOF” (SHANGHAI ECUSTBIOMEDICINECOMPANY LTD., priority 2021, published 2024).

The test system of one experiment is SGC7901. Nature of the experiment: CCK-8 anti-tumor activity, IC50. It counts as cell-based, human. Particulars: for IC50: Homo sapiens, SGC-7901, SGC7901, 72 hours. On the procedure:
(§1) Take cells in logarithmic growth phase for experiments. Digest and count the cells, then make them into a cell suspension in 1×10^5 cells/mL, next seed the cell suspension in a 96-hole plate (100 μL per hole), then place the plate in a 5% CO2 incubator at 37° C. to be incubated for 24 hours. Add a subject with a corresponding concentration into each hole, and concurrently set up a negative control group and a blank group, each of which has 3 holes. After having placed the plate in the incubator for 72 hours, observe the morphologies of cells in each group under a microscope, then add a 10 μL CCK8 solution to each hole, and continue incubating the cells in the incubator for 4 hours, measure the absorbance value at 450 nm. In the test, take cells with 8 concentration gradients respectively, then measure the inhibition rate corresponding to each concentration. Use the GraphPad Prism 5.0 statistical software to treat data, use the t-test software to make a comparison between two groups, and use the One-way Anova (Dunnett) software to make a comparison among multiple groups. if P<0.05, the results have statistical significance, and then calculate the IC50 value.

A further experiment concerns MCF-7. Put plainly: CCK-8 anti-tumor activity, IC50. It counts as cell-based, human. Particulars: for IC50: Homo sapiens, MCF7, MCF-7, 72 hours. On the procedure: as §1
The test system of a further experiment is A549. Put plainly: CCK-8 anti-tumor activity, IC50. The class given is cell-based. To be noted: Homo sapiens, 72 hours. As for the experimental part:
as §1

In the next experiment the test system is HepG2. Nature of the experiment: CCK-8 anti-tumor activity, IC50. The class given is cell-based. Particulars: Homo sapiens. As for the experimental part:
as §1

The subject of a further experiment is Hela. Nature of the experiment: CCK-8 anti-tumor activity, IC50. The class given is cell-based. To be noted: Homo sapiens. On the procedure: as §1
For another experiment, the system named is SW480. Nature of the experiment: CCK-8 anti-tumor activity, IC50. It counts as cell-based. Particulars: Homo sapiens, 72 hours. As for the experimental part: as §1
The test system of experiment [1] is human hepatoma cell HepG2 xenotransplantation tumor. Nature of the experiment: Gavage administration, inhibition of xenografted tumors of tumor-bearing nude mice. It counts as in vivo. Particulars: 14 times; for Tumor weight: day 15; for Inhibition rate(%): tumor weight vs model group. An excerpt:
Inoculate the human hepatoma cell strain HepG2 subcutaneously at an armpit of a nude mouse, as to establish a human hepatoma cell HepG2 xenotransplantation tumor model. Take the cells HepG2 in logarithmic growth phase, under sterile conditions, inoculate the cells subcutaneously at right armpits of 55 nude mice. Measure the diameter of the xenograft tumors by a vernier caliper, when the tumors grow to about 100 mm^3, choose 48 tumor-bearing nude mice having an uniform tumor size in a good growth status, then randomly divide them into 8 groups, each of which has 6 mice, namely a model group, a 7a low-dosage group (50 mg/kg), a 7a medium-dosage group (100 mg/kg), a 7a high-dosage group (150 mg/kg), and a sorafenib group (50 mg/kg). Share an isovolumic solvent among the mice in the model group through gavage, administer drugs through gavage once a day. Administer drugs in the 7a low-dosage group, the 7a medium-dosage group, and the 7a high-dosage group once a day at 50 mg/kg, 100 mg/kg, and 150 mg/kg, respectively, to reach 14 times administration in total. Administer drugs in the sorafenib group once a day at 50 mg/kg, to reach 14 times administration in total. Dynamically observe the anti-tumor effect of the subjects by adopting the method of measuring tumor diameters. Measure the tumor diameter on alternate days, while weigh the body weight of nude mice. On the 15th day, kill the mice, then pick away tumor lumps surgically and weigh them, and preserve the tumor tissue in a liquid nitrogen tank, next calculate the tumor inhibition rate (%). Tumor inhibition rate (%)= (tumor weight in the model group-tumor weight in the administration group)/tumor weight in the model group×100%.

The next experiment deals with HepG2 cell strain. Put plainly: In-vitro inhibitory activity against proliferation of tumor cells (CCK8, inhibition rate). The class given is cell-based, human. To be noted: for inhibition at 1 µM / inhibition at 10 µM / inhibition at 0.1 µM: Homo sapiens, 72 hours. As for the experimental part: Take cells in logarithmic growth phase for experiments. Digest and count the cells, then make them into a cell suspension in 1×10^5 cells/mL, next seed the cell suspension in a 96-hole plate (100 μL per hole), then place the plate in a 5% CO2 incubator at 37° C. to be incubated for 24 hours. Add a subject with a corresponding concentration into each hole, and concurrently set up a negative control group and a blank group, each of which has 3 holes. After having placed the plate in the incubator for 72 hours, observe the morphologies of cells in each group under a microscope, then add a 10 μL CCK8 solution to each hole, and continue incubating the cells in the incubator for 4 h. Measure the absorbance value at 450 nm, and calculate the inhibition rate of cell proliferation; if P<0.05, the results have statistical significance.

Setting [2] is: read-out: IC50 value against the Hela cells.

Where two headings read alike, the source gives them in different places.

Usually IC50 stands for the point on the concentration scale where inhibition reaches its midpoint. As usually defined, the inhibition is the percentage by which the read-out fell short of the control. A high value points to a response far below the control. Turning to `COc1ccc(CCc2cc(OC)c(OC)c(OC)c2)cc1OC(=O)C(Cl)Cl` [7a, 2-methoxy-5-(3,4,5-trimethoxyphenylethyl) phenyl 2,2-dichloroacetate], the IC50 with SGC7901 was found to be 469 nM; with MCF-7, 656 nM; in the experiment with A549 it was 726 nM; in the experiment with HepG2 (72 hours, read-out: IC50) it was 48.9 nM; in the experiment on HepG2 (read-out: IC50 value against the HepG2 cells) it was 48.9 nM; in the experiment with Hela (72 hours, read-out: IC50), 516 nM. The IC50 with Hela (setting [2]) came to 516 nM; with SW480 it was 940 nM. The figures for the “Tumor weight” value in experiment [1] (50 mg/kg gavage once a day), in experiment [1] (100 mg/kg gavage once a day) and in experiment [1] (150 mg/kg gavage once a day) were 0.569 ± 0.103 g, 0.479 ± 0.100 g and 0.314 ± 0.076 g, respectively. Further, the entries for the “Inhibition rate(%)” value in experiment [1] (50 mg/kg gavage once a day), in experiment [1] (100 mg/kg gavage once a day) and in experiment [1] (150 mg/kg gavage once a day) were 62.0%, 72.4% and 86.9%, respectively. The “inhibitory activity against HepG2 cells (in words)” value in the experiment with HepG2 cell strain is reported as “good inhibitory activity”. In the experiment on HepG2 cell strain, this compound yielded an inhibition at 1 µM of 94.43 ± 0.89%. In the experiment on HepG2 cell strain, the inhibition at 10 µM amounted to 89.3 ± 1.5%.

In the experiment on HepG2 cell strain, `COc1ccc(CCc2cc(OC)c(OC)c(OC)c2)cc1OC(=O)CCCNC(=O)C(Cl)Cl` [8c, 2-methoxy-5-(3,4,5-trimethoxyphenylethy) phenyl4-(2,2-dichloroacetamide) butyrate] came in with an inhibition at 0.1 µM of 36.1 ± 11.7%, an inhibition at 1 µM of 68.7 ± 0.72% and an inhibition at 10 µM of 89.27 ± 0.66%.

On to `COc1ccc(CCc2cc(OC)c(OC)c(OC)c2)cc1OC(=O)CCCCCNC(=O)C(Cl)Cl` [8d, 2-methoxy-5-(3,4,5-trimethoxyphenylethyl) phenyl6-(2,2-dichloroacetamide) hexanoate], for which the IC50 was 103 nM in the experiment on SGC7901; 174 nM in the experiment with MCF-7; 135 nM in the experiment with HepG2 (72 hours, read-out: IC50); 288 nM with Hela (72 hours, read-out: IC50); 288 nM with Hela (setting [2]); 326 nM with SW480. Further, the “inhibitory activity compared with erianin (in words)” value in the experiment with SGC7901 (human gastric cancer SGC7901 cell strains) and in the experiment with MCF-7 (human breast cancer MCF-7 cell strains) was “superior to erianin” each time. The “inhibitory activity against HepG2 cells (in words)” value in the experiment on HepG2 cell strain was “good inhibitory activity”. Also, testing at 0.1 µM in the experiment with HepG2 cell strain gave an inhibition of 50.9 ± 4.44%. The compound further returned an inhibition at 1 µM with HepG2 cell strain of 73 ± 3.1%. In the experiment with HepG2 cell strain, this compound yielded an inhibition at 10 µM of 90.6 ± 2.33%.

For the compound `CCOc1ccc(CCc2cc(OC)c(OC)c(OC)c2)cc1OC(=O)C(Cl)Cl` [7b], in the experiment on HepG2 cell strain, the “inhibitory activity against HepG2 cells (in words)” value is “better than that of erianin”, 0.1 µM produced 35.7 ± 2.42% inhibition, 1 µM produced 48.4 ± 9.88% inhibition and testing at 10 µM gave an inhibition of 73.7 ± 4.7%.

On to `CNC(=O)c1cc(Oc2ccc(NC(=O)Nc3ccc(Cl)c(C(F)(F)F)c3)cc2)ccn1` [sorafenib, reference compound], for which, in experiment [1] (50 mg/kg gavage once a day), the “Tumor weight” value turned out to be 0.581 ± 0.089 g and the “Inhibition rate(%)” value is listed as 59.3%.

For the compound `COc1ccc(CCc2cc(OC)c(OC)c(OC)c2)cc1OC(=O)CNC(=O)C(Cl)Cl` [8a, 2-methoxy-5-(3,4,5-trimethoxyphenylethyl) phenyl3-(2,2-dichloroacetamide) acetate], in the experiment on HepG2 cell strain, the inhibition at 0.1 µM is 18.5 ± 1.16%, the inhibition at 1 µM amounted to 30 ± 2.03% and testing at 10 µM gave an inhibition of 45.6 ± 2.53%.

For the compound `COc1ccc(CCc2cc(OC)c(OC)c(OC)c2)cc1OC(=O)CCNC(=O)C(Cl)Cl` [8b, 2-methoxy-5-(3,4,5-trimethoxyphenyletyl) phenyl3-(2,2-dichloroacetamide) propionate], in the experiment on HepG2 cell strain, the inhibition at 0.1 µM amounted to 37.5 ± 4.49%, testing at 1 µM gave an inhibition of 55.8 ± 4.37% and the inhibition at 10 µM came out at 74.2 ± 2.41%.
